Experiments:
[1] = target: T1, Mitogen-activated protein kinase kinase kinase 6 (Homo sapiens) (UniProt O95382); assay: Selectivity interaction (KinomeScan (DiscoverX)) EUB0001079a MAP3K6; details: at 1 µM
T1 sequence (whole entry): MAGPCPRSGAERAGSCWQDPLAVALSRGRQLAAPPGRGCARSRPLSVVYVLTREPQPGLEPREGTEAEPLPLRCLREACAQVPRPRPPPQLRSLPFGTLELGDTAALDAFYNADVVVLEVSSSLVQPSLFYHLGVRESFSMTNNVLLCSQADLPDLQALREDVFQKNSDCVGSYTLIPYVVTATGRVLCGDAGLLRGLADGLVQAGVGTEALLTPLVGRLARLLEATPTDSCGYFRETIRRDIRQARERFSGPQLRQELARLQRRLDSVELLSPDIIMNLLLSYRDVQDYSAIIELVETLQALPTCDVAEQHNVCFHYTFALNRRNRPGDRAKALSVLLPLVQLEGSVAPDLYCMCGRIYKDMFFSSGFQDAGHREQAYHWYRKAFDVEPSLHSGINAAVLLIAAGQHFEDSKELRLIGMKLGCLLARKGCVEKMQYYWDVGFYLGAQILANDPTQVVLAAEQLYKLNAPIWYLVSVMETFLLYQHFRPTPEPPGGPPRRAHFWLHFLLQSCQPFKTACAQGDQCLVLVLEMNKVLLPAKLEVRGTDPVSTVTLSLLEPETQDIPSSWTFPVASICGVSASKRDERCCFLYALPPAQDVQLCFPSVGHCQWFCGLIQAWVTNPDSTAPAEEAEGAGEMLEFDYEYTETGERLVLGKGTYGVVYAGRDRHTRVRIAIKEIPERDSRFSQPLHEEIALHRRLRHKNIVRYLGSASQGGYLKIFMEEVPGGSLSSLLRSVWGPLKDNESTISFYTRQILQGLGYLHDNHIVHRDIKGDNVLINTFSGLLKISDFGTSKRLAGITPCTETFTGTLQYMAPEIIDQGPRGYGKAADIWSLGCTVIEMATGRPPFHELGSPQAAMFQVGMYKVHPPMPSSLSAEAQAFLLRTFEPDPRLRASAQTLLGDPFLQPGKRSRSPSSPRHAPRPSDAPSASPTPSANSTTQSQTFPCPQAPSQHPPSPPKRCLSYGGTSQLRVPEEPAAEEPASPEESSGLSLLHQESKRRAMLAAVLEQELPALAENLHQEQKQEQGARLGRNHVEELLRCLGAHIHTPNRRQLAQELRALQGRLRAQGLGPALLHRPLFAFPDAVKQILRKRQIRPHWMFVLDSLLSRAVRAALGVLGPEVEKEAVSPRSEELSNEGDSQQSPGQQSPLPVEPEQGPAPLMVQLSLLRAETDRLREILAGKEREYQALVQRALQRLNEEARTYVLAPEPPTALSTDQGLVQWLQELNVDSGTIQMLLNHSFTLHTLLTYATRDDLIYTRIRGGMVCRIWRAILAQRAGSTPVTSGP

[2] = target: Serine/threonine-protein kinase PRP4 homolog (Homo sapiens) (UniProt Q13523); assay: Selectivity interaction (ActivX KiNativ screen (kinase selectivity in THP-1 cell lysates)) EUB0000639a PRPF4; type: subcellular; details: lysate, at 0.04 µM
Serine/threonine-protein kinase PRP4 homolog (Homo sapiens), sequence (Q13523 whole entry, canonical isoform): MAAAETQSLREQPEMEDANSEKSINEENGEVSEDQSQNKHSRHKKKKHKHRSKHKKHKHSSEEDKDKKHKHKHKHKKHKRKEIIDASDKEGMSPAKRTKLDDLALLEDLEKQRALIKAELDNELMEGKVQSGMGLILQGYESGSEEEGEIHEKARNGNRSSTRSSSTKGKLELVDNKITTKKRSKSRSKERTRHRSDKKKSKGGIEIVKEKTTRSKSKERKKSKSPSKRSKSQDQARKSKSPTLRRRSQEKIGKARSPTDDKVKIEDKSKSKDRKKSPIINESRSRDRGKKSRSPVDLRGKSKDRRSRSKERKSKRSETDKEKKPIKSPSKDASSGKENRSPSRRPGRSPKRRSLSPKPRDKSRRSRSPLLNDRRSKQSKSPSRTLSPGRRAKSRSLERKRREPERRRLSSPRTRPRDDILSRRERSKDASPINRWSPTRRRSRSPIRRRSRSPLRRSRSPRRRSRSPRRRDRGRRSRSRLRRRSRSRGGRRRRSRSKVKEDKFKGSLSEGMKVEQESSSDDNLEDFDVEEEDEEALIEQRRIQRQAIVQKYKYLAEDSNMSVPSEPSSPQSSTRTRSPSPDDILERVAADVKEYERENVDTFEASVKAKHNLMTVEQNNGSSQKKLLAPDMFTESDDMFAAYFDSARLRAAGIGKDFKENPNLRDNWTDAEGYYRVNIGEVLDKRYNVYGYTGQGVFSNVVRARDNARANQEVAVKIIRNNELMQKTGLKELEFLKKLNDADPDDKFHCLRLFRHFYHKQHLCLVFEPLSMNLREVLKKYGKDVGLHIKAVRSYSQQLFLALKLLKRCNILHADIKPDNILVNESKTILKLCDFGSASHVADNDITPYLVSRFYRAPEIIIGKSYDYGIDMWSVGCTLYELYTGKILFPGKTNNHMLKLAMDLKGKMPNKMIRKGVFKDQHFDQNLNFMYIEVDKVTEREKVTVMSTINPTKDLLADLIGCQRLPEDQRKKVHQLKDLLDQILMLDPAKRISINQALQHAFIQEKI

[3] = target: Phosphatidylinositol 4,5-bisphosphate 3-kinase catalytic subunit gamma isoform (Homo sapiens) (UniProt P48736); assay: Selectivity interaction (Kinase panel (Invitrogen)) EUB0000639a PIK3CG; details: at 200 nM
Phosphatidylinositol 4,5-bisphosphate 3-kinase catalytic subunit gamma isoform (Homo sapiens), sequence (P48736 whole entry, looked up, the tested form may be a part, canonical isoform): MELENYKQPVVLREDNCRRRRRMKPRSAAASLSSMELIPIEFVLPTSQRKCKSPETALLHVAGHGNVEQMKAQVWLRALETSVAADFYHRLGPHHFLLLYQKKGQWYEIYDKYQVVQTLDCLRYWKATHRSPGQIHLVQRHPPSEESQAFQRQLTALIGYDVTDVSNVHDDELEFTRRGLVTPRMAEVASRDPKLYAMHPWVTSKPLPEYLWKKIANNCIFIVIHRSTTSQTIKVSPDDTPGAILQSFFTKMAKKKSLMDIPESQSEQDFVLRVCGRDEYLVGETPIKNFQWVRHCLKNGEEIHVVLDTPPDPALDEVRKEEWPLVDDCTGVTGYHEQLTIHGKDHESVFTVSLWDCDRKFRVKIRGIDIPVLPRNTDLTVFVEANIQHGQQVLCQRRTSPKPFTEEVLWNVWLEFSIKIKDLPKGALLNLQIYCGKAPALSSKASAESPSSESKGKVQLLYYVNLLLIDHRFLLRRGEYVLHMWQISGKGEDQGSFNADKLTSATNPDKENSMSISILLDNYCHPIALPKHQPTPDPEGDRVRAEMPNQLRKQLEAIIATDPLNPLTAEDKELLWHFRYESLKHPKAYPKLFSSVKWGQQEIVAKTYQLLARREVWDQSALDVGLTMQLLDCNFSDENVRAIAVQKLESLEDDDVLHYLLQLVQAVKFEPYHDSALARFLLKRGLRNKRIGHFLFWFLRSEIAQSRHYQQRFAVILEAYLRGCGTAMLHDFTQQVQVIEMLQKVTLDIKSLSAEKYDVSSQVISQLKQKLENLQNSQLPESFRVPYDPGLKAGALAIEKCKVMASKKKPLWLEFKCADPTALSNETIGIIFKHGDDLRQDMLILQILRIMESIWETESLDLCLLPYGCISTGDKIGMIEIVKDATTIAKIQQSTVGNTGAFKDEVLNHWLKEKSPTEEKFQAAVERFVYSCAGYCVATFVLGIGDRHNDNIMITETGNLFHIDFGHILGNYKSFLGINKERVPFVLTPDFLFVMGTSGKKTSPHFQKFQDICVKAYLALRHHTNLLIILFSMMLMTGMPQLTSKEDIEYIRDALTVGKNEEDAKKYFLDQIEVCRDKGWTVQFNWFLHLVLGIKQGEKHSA

[4] = target: Epithelial discoidin domain-containing receptor 1 (Homo sapiens) (UniProt Q08345); assay: Selectivity interaction (Kinase panel (Invitrogen)) EUB0000639a DDR1; details: at 200 nM
Epithelial discoidin domain-containing receptor 1 (Homo sapiens), sequence (Q08345 whole entry, the tested form may be a part): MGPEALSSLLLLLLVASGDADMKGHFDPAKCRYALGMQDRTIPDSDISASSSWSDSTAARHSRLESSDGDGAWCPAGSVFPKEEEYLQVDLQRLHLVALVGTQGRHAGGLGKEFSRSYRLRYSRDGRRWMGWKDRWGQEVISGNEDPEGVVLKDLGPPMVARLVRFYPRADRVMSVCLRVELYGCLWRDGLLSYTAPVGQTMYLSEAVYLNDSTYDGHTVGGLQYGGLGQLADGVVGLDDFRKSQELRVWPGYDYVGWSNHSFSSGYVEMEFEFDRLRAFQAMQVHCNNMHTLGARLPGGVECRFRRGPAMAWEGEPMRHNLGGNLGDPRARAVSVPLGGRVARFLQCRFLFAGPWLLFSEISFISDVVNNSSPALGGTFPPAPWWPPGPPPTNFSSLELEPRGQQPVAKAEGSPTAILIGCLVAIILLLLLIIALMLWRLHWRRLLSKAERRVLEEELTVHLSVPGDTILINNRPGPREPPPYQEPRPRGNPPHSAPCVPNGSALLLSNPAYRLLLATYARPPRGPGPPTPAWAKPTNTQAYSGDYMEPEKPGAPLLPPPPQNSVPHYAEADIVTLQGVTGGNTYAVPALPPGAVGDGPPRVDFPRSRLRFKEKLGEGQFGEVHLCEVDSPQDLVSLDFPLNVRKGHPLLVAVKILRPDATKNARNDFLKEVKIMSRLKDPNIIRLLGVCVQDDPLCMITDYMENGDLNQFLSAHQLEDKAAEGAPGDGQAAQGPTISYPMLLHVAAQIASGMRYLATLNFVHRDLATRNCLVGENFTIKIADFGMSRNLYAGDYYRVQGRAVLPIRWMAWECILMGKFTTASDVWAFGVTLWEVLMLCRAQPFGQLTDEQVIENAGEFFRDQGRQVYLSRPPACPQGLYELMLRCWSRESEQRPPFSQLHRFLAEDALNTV

[5] = target: T2, Mitogen-activated protein kinase kinase kinase 19 (Homo sapiens) (UniProt Q56UN5); assay: Selectivity interaction (KinomeScan (DiscoverX)) EUB0000655a MAP3K19; details: at 10 µM
T2 sequence (whole entry): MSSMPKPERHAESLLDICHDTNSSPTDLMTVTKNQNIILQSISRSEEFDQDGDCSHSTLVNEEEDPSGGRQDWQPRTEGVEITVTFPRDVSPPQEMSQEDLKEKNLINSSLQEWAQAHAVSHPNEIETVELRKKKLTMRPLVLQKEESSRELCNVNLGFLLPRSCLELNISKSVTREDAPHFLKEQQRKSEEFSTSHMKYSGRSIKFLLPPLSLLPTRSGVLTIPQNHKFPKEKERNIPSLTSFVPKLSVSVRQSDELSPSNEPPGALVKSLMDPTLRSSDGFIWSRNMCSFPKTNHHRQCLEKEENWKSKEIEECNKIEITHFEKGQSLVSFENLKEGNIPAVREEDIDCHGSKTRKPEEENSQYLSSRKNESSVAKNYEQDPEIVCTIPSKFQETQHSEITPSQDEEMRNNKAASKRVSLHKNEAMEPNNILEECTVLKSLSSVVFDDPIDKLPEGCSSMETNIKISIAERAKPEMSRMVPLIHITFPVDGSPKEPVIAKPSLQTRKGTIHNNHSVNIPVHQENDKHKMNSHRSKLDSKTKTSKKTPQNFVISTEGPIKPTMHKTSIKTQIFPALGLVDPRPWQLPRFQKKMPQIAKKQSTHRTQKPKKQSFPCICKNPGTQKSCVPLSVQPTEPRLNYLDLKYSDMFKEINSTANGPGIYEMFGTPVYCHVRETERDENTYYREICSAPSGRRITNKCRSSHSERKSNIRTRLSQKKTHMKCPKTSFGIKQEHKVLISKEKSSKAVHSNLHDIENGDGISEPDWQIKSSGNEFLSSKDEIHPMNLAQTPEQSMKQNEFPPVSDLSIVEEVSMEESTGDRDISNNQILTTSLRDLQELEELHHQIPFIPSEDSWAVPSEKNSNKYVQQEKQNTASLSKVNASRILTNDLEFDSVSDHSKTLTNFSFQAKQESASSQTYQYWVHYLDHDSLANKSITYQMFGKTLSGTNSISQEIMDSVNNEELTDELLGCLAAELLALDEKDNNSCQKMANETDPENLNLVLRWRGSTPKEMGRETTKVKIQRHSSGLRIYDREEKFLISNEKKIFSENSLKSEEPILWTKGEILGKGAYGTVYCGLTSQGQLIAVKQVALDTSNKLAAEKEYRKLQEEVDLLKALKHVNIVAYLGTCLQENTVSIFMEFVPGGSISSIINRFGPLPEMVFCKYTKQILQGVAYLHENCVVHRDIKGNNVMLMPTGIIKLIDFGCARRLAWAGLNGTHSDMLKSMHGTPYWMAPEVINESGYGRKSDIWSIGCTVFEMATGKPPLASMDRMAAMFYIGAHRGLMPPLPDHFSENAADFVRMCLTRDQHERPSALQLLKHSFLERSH

[6] = target: Tyrosine-protein kinase HCK (Homo sapiens) (UniProt P08631); assay: Selectivity interaction (KinomeScan (DiscoverX)) EUB0000655a HCK; details: at 10 µM
Tyrosine-protein kinase HCK (Homo sapiens), sequence (P08631 2-526 limits assumed): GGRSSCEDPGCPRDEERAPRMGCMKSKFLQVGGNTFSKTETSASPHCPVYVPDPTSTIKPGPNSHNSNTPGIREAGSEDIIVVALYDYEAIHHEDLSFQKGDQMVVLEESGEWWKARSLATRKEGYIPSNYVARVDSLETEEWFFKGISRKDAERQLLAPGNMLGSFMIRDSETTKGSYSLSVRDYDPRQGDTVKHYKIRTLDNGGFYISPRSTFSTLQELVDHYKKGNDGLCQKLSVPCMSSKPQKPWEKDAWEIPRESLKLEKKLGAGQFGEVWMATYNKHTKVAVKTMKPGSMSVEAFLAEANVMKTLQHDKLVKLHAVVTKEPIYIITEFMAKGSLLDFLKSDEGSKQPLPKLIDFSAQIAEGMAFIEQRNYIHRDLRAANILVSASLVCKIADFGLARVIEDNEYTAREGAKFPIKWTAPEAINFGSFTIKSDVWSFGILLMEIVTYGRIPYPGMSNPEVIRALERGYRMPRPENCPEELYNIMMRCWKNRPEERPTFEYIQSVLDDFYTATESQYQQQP

[7] = target: Phosphatidylinositol 4-phosphate 5-kinase type-1 alpha (Homo sapiens) (UniProt Q99755); assay: Selectivity interaction (Ambit KINOMEscan and KiNATiv profiling in Jurkat cells) EUB0000090b PIP5K1A; type: cell-based; details: at 1 µM
Phosphatidylinositol 4-phosphate 5-kinase type-1 alpha (Homo sapiens), sequence (Q99755 whole entry): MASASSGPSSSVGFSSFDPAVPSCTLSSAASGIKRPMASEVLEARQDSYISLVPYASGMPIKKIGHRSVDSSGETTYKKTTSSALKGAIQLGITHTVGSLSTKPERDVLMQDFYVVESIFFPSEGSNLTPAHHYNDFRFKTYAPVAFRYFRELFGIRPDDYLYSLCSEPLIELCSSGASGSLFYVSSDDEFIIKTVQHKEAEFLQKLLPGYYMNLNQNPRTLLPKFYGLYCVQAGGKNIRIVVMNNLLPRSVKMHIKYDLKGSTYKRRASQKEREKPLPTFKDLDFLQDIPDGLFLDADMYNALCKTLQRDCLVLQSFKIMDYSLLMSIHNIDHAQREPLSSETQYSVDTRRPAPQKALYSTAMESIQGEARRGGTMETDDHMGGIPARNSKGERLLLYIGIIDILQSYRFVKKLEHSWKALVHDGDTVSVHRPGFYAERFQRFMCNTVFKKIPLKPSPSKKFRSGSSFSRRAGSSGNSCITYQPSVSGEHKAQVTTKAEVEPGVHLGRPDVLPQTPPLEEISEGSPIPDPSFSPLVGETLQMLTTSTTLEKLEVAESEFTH

SMILES: Nc1cnc(N2CCc3cc(S(=O)(=O)Nc4c(F)cc(Cl)cc4F)cc(N4CCCC4=O)c32)nc1 [TP-020n]
- % of control [1]: 75%

SMILES: CC[C@@H]1[C@H](F)C(=O)N[C@@H]1COc1nccc2cc(C(N)=O)c(OC)cc12 [ZIMLOVISERTIB]
- % of inhibition [2]: 16%
- % of inhibition [3]: 6.49%
- % of inhibition [4]: -1.2%

SMILES: CN(C)CCOc1ccc(-c2nc(-c3ccncc3)c(-c3ccc4c(c3)CC/C4=N\O)[nH]2)cc1
- % of control [5]: 30%
- % of control [6]: 84%

SMILES: CN(C)C/C=C/C(=O)Nc1ccc(C(=O)N2CCCC(Nc3ncc(Cl)c(-c4c[nH]c5ccccc45)n3)C2)cc1 (configuration not stated)
- % of control [7]: 78%

Reference: ChEMBL document CHEMBL5465560, “Selectivity Literature for EUbOPEN Chemogenomic Library” (2024)
